From the NIST ThermoML archive (doi:10.1021/acs.jced.7b00347)
± gives the expanded uncertainty stated by the source.

Assay: mn = molality of the nth substance listed, in mol/kg
Conditions: for surface tension liquid-gas: Ring tensiometer; for electrical conductivity: 100 kPa, Liquid, Alternating current cell with electrodes

CCCCCCCCC[NH+](CCO)CC(C)O.[Cl-] (stereo not drawn) + O
surface tension liquid-gas (293.15 K, m1 = 1.774e-05): 61.16 ± 0.79 mN/m
surface tension liquid-gas (293.15 K, m1 = 3.548e-05): 54.59 ± 0.71 mN/m
surface tension liquid-gas (293.15 K, m1 = 8.87e-05): 46.05 ± 0.61 mN/m
surface tension liquid-gas (293.15 K, m1 = 0.0001774): 39.04 ± 0.53 mN/m
surface tension liquid-gas (293.15 K, m1 = 0.0002661): 35.47 ± 0.49 mN/m
surface tension liquid-gas (293.15 K, m1 = 0.0003548): 33.14 ± 0.47 mN/m
surface tension liquid-gas (293.15 K, m1 = 0.0004257): 31.39 ± 0.45 mN/m
surface tension liquid-gas (293.15 K, m1 = 0.000887): 30.48 ± 0.44 mN/m
surface tension liquid-gas (293.15 K, m1 = 0.001774): 29.73 ± 0.44 mN/m
surface tension liquid-gas (293.15 K, m1 = 0.002661): 29.56 ± 0.43 mN/m
surface tension liquid-gas (293.15 K, m1 = 0.003547): 29.48 ± 0.43 mN/m
electrical conductivity (293.15 K, m1 = 1.77e-05): 0.00044 ± 2.5e-05 S/m
electrical conductivity (293.15 K, m1 = 3.66e-05): 0.000507 ± 2.8e-05 S/m
electrical conductivity (293.15 K, m1 = 5.55e-05): 0.000574 ± 3.2e-05 S/m
electrical conductivity (293.15 K, m1 = 7.43e-05): 0.000641 ± 3.5e-05 S/m
electrical conductivity (293.15 K, m1 = 9.32e-05): 0.000709 ± 4e-05 S/m
electrical conductivity (293.15 K, m1 = 0.0001121): 0.000776 ± 4.4e-05 S/m
electrical conductivity (293.15 K, m1 = 0.0001309): 0.000843 ± 4.8e-05 S/m
electrical conductivity (293.15 K, m1 = 0.0001498): 0.00091 ± 5.2e-05 S/m
electrical conductivity (293.15 K, m1 = 0.0001687): 0.000977 ± 5.7e-05 S/m
electrical conductivity (293.15 K, m1 = 0.0001875): 0.00104 ± 6.1e-05 S/m
electrical conductivity (293.15 K, m1 = 0.0002064): 0.00111 ± 6.5e-05 S/m
electrical conductivity (293.15 K, m1 = 0.0002253): 0.00118 ± 7e-05 S/m
electrical conductivity (293.15 K, m1 = 0.0002441): 0.00125 ± 7.4e-05 S/m
electrical conductivity (293.15 K, m1 = 0.000263): 0.00131 ± 7.9e-05 S/m
electrical conductivity (293.15 K, m1 = 0.0002819): 0.00138 ± 8.3e-05 S/m
electrical conductivity (293.15 K, m1 = 0.0003008): 0.00145 ± 8.7e-05 S/m
electrical conductivity (293.15 K, m1 = 0.0003196): 0.00152 ± 9.2e-05 S/m
electrical conductivity (293.15 K, m1 = 0.0003385): 0.00158 ± 9.6e-05 S/m
electrical conductivity (293.15 K, m1 = 0.0003574): 0.00165 ± 0.0001 S/m
electrical conductivity (293.15 K, m1 = 0.0003762): 0.00172 ± 0.00011 S/m
electrical conductivity (293.15 K, m1 = 0.0003951): 0.00178 ± 0.00011 S/m
electrical conductivity (293.15 K, m1 = 0.000414): 0.00185 ± 0.00011 S/m
electrical conductivity (293.15 K, m1 = 0.0004328): 0.00192 ± 0.00012 S/m
electrical conductivity (293.15 K, m1 = 0.0004555): 0.00197 ± 0.00012 S/m
electrical conductivity (293.15 K, m1 = 0.0004782): 0.00202 ± 0.00013 S/m
electrical conductivity (293.15 K, m1 = 0.0005009): 0.00207 ± 0.00013 S/m
electrical conductivity (293.15 K, m1 = 0.0005236): 0.00212 ± 0.00013 S/m
electrical conductivity (293.15 K, m1 = 0.0005464): 0.00217 ± 0.00013 S/m
electrical conductivity (293.15 K, m1 = 0.0005691): 0.00222 ± 0.00013 S/m
electrical conductivity (293.15 K, m1 = 0.0005918): 0.00227 ± 0.00014 S/m
electrical conductivity (293.15 K, m1 = 0.0006145): 0.00232 ± 0.00014 S/m
electrical conductivity (293.15 K, m1 = 0.0006372): 0.00236 ± 0.00014 S/m
electrical conductivity (293.15 K, m1 = 0.0006599): 0.00242 ± 0.00014 S/m
electrical conductivity (293.15 K, m1 = 0.0006826): 0.00246 ± 0.00014 S/m
electrical conductivity (293.15 K, m1 = 0.0007053): 0.00251 ± 0.00015 S/m
electrical conductivity (293.15 K, m1 = 0.000728): 0.00256 ± 0.00015 S/m
electrical conductivity (293.15 K, m1 = 0.0007507): 0.00261 ± 0.00015 S/m
electrical conductivity (293.15 K, m1 = 0.0007734): 0.00266 ± 0.00015 S/m
electrical conductivity (293.15 K, m1 = 0.0007961): 0.00271 ± 0.00015 S/m
electrical conductivity (293.15 K, m1 = 0.0008188): 0.00276 ± 0.00015 S/m
electrical conductivity (293.15 K, m1 = 0.0008415): 0.00281 ± 0.00016 S/m
electrical conductivity (293.15 K, m1 = 0.0008642): 0.00286 ± 0.00016 S/m
electrical conductivity (293.15 K, m1 = 0.0008869): 0.00291 ± 0.00016 S/m
surface tension liquid-gas (298.15 K, m1 = 1.774e-05): 56.05 ± 0.73 mN/m
surface tension liquid-gas (298.15 K, m1 = 3.548e-05): 49.71 ± 0.66 mN/m
surface tension liquid-gas (298.15 K, m1 = 8.87e-05): 41.62 ± 0.56 mN/m
surface tension liquid-gas (298.15 K, m1 = 0.0001774): 35.73 ± 0.49 mN/m
surface tension liquid-gas (298.15 K, m1 = 0.0002661): 32.44 ± 0.46 mN/m
surface tension liquid-gas (298.15 K, m1 = 0.0003619): 30.45 ± 0.44 mN/m
surface tension liquid-gas (298.15 K, m1 = 0.000887): 29.41 ± 0.43 mN/m
surface tension liquid-gas (298.15 K, m1 = 0.001774): 28.9 ± 0.43 mN/m
surface tension liquid-gas (298.15 K, m1 = 0.002661): 28.56 ± 0.42 mN/m
surface tension liquid-gas (298.15 K, m1 = 0.003547): 28.41 ± 0.42 mN/m
electrical conductivity (298.15 K, m1 = 1.77e-05): 0.00054 ± 3e-05 S/m
electrical conductivity (298.15 K, m1 = 4.07e-05): 0.000642 ± 3.7e-05 S/m
electrical conductivity (298.15 K, m1 = 6.36e-05): 0.000745 ± 4.1e-05 S/m
electrical conductivity (298.15 K, m1 = 8.66e-05): 0.000848 ± 7.7e-05 S/m
electrical conductivity (298.15 K, m1 = 0.0001095): 0.00095 ± 5.7e-05 S/m
electrical conductivity (298.15 K, m1 = 0.0001324): 0.00105 ± 6e-05 S/m
electrical conductivity (298.15 K, m1 = 0.0001554): 0.00115 ± 6.6e-05 S/m
electrical conductivity (298.15 K, m1 = 0.0001783): 0.00126 ± 0.00012 S/m
electrical conductivity (298.15 K, m1 = 0.0002013): 0.00136 ± 9.1e-05 S/m
electrical conductivity (298.15 K, m1 = 0.0002242): 0.00146 ± 9.3e-05 S/m
electrical conductivity (298.15 K, m1 = 0.0002472): 0.00156 ± 9.6e-05 S/m
electrical conductivity (298.15 K, m1 = 0.0002701): 0.00167 ± 9.2e-05 S/m
electrical conductivity (298.15 K, m1 = 0.000293): 0.00177 ± 0.00039 S/m
electrical conductivity (298.15 K, m1 = 0.000316): 0.00187 ± 0.0001 S/m
electrical conductivity (298.15 K, m1 = 0.0003389): 0.00198 ± 0.00021 S/m
electrical conductivity (298.15 K, m1 = 0.0003619): 0.00208 ± 0.0003 S/m
electrical conductivity (298.15 K, m1 = 0.0003881): 0.00215 ± 0.00013 S/m
electrical conductivity (298.15 K, m1 = 0.0004144): 0.00222 ± 0.00014 S/m
electrical conductivity (298.15 K, m1 = 0.0004406): 0.00229 ± 0.00013 S/m
electrical conductivity (298.15 K, m1 = 0.0004669): 0.00237 ± 0.00014 S/m
electrical conductivity (298.15 K, m1 = 0.0004931): 0.00244 ± 0.00013 S/m
electrical conductivity (298.15 K, m1 = 0.0005194): 0.00251 ± 0.00014 S/m
electrical conductivity (298.15 K, m1 = 0.0005456): 0.00258 ± 0.00014 S/m
electrical conductivity (298.15 K, m1 = 0.0005719): 0.00265 ± 0.00018 S/m
electrical conductivity (298.15 K, m1 = 0.0005981): 0.00273 ± 0.00015 S/m
electrical conductivity (298.15 K, m1 = 0.0006244): 0.0028 ± 0.00015 S/m
electrical conductivity (298.15 K, m1 = 0.0006507): 0.00287 ± 0.00016 S/m
electrical conductivity (298.15 K, m1 = 0.0006769): 0.00294 ± 0.00016 S/m
electrical conductivity (298.15 K, m1 = 0.0007032): 0.00301 ± 0.00017 S/m
electrical conductivity (298.15 K, m1 = 0.0007294): 0.00309 ± 0.00017 S/m
electrical conductivity (298.15 K, m1 = 0.0007557): 0.00316 ± 0.00017 S/m
electrical conductivity (298.15 K, m1 = 0.0007819): 0.00323 ± 0.00018 S/m
electrical conductivity (298.15 K, m1 = 0.0008082): 0.0033 ± 0.00018 S/m
electrical conductivity (298.15 K, m1 = 0.0008344): 0.00337 ± 0.00019 S/m
